Test results reported in the NIST ThermoML archive (doi:10.1007/s10765-019-2573-6).
± gives the expanded uncertainty stated by the source.

Details: Liquid, Vibrating wire viscometry

CCCOC(=O)CCCCC(=O)OCCC [dipropyl hexanedioate]
viscosity [mPa·s]
Details	100 kPa	1000 kPa	5000 kPa	10000 kPa	15000 kPa	20000 kPa	30000 kPa	40000 kPa
283.15 K	6.153 ± 0.14	6.217 ± 0.14	6.536 ± 0.15	6.943 ± 0.16	7.36 ± 0.17	7.811 ± 0.18	8.759 ± 0.2	9.76 ± 0.22
293.14 K	–	4.65 ± 0.11	–	–	–	–	–	–
293.15 K	4.599 ± 0.11	–	4.87 ± 0.11	5.155 ± 0.12	5.456 ± 0.12	5.773 ± 0.13	6.429 ± 0.15	7.169 ± 0.16
303.15 K	3.567 ± 0.082	3.604 ± 0.084	3.766 ± 0.086	3.983 ± 0.091	4.205 ± 0.096	4.434 ± 0.1	4.938 ± 0.11	5.457 ± 0.12
313.15 K	2.854 ± 0.065	2.889 ± 0.067	3.014 ± 0.069	3.178 ± 0.073	3.347 ± 0.076	3.519 ± 0.08	3.899 ± 0.089	4.293 ± 0.098
323.14 K	–	–	–	2.592 ± 0.059	–	–	–	–
323.15 K	2.34 ± 0.054	2.364 ± 0.055	2.464 ± 0.056	–	2.725 ± 0.062	2.867 ± 0.066	3.157 ± 0.072	3.475 ± 0.079
333.15 K	1.954 ± 0.045	1.973 ± 0.046	2.058 ± 0.047	2.163 ± 0.05	2.275 ± 0.052	2.391 ± 0.055	2.624 ± 0.06	2.875 ± 0.066
343.15 K	1.658 ± 0.038	1.673 ± 0.039	1.744 ± 0.04	1.835 ± 0.042	1.928 ± 0.044	2.019 ± 0.046	2.216 ± 0.051	2.42 ± 0.056
353.15 K	1.426 ± 0.033	1.44 ± 0.034	1.5 ± 0.035	1.577 ± 0.036	1.654 ± 0.038	1.736 ± 0.04	1.9 ± 0.044	2.074 ± 0.048
363.15 K	1.242 ± 0.029	1.253 ± 0.029	1.306 ± 0.03	1.371 ± 0.032	1.439 ± 0.033	1.508 ± 0.035	1.649 ± 0.038	1.798 ± 0.041

COC(=O)CCCCC(=O)OC [dimethyl 1,6-hexanedioate]
viscosity [mPa·s]
Details	100 kPa	1000 kPa	5000 kPa	10000 kPa	15000 kPa	20000 kPa	30000 kPa	40000 kPa
293.15 K	–	–	3.46 ± 0.073	3.623 ± 0.077	3.787 ± 0.08	3.958 ± 0.084	4.333 ± 0.091	4.722 ± 0.1
293.17 K	3.302 ± 0.07	3.331 ± 0.071	–	–	–	–	–	–
303.15 K	–	–	2.735 ± 0.058	2.854 ± 0.06	–	–	–	–
303.16 K	–	–	–	–	2.985 ± 0.063	3.115 ± 0.066	3.384 ± 0.072	3.672 ± 0.078
303.17 K	2.617 ± 0.056	2.637 ± 0.057	–	–	–	–	–	–
313.14 K	–	2.151 ± 0.046	–	–	2.422 ± 0.051	2.522 ± 0.053	2.727 ± 0.058	–
313.15 K	2.129 ± 0.045	–	2.227 ± 0.047	2.326 ± 0.049	–	–	–	2.955 ± 0.063
323.14 K	–	–	–	–	–	–	–	2.432 ± 0.052
323.15 K	1.774 ± 0.038	1.789 ± 0.039	1.85 ± 0.04	1.928 ± 0.041	2.008 ± 0.043	2.089 ± 0.044	2.254 ± 0.048	–
333.14 K	–	–	–	–	–	–	–	2.046 ± 0.044
333.15 K	1.503 ± 0.032	1.514 ± 0.033	1.565 ± 0.034	1.629 ± 0.035	1.696 ± 0.036	1.764 ± 0.038	1.903 ± 0.041	–
343.15 K	1.293 ± 0.028	1.303 ± 0.028	1.346 ± 0.029	1.401 ± 0.03	1.457 ± 0.031	1.514 ± 0.032	1.63 ± 0.035	1.752 ± 0.037
353.15 K	1.128 ± 0.024	–	1.174 ± 0.025	1.221 ± 0.026	1.269 ± 0.027	1.317 ± 0.028	1.417 ± 0.03	1.52 ± 0.033
353.16 K	–	1.136 ± 0.025	–	–	–	–	–	–
363.13 K	–	–	–	–	1.115 ± 0.024	1.157 ± 0.025	–	–
363.15 K	0.9897 ± 0.022	0.9971 ± 0.022	1.03 ± 0.022	1.072 ± 0.023	–	–	1.244 ± 0.027	1.332 ± 0.029

CCOC(=O)CCCCC(=O)OCC [diethyl hexanedioate]
viscosity [mPa·s]
Details	100 kPa	1000 kPa	5000 kPa	10000 kPa	15000 kPa	20000 kPa	30000 kPa	40000 kPa
283.15 K	4.541 ± 0.096	4.59 ± 0.097	4.792 ± 0.1	5.062 ± 0.11	5.332 ± 0.11	5.622 ± 0.12	–	6.887 ± 0.14
283.16 K	–	–	–	–	–	–	6.223 ± 0.13	–
293.15 K	3.486 ± 0.074	3.521 ± 0.077	3.672 ± 0.078	3.868 ± 0.082	4.075 ± 0.086	4.278 ± 0.09	4.722 ± 0.1	5.195 ± 0.11
303.15 K	2.766 ± 0.059	2.792 ± 0.06	2.912 ± 0.062	3.063 ± 0.065	3.207 ± 0.068	3.361 ± 0.071	3.696 ± 0.078	4.042 ± 0.085
313.15 K	2.252 ± 0.048	–	2.362 ± 0.05	2.478 ± 0.053	2.597 ± 0.055	2.721 ± 0.058	2.978 ± 0.063	3.251 ± 0.069
313.16 K	–	2.272 ± 0.049	–	–	–	–	–	–
323.15 K	1.87 ± 0.04	1.886 ± 0.041	1.961 ± 0.042	2.054 ± 0.044	2.151 ± 0.046	2.248 ± 0.048	2.461 ± 0.052	2.68 ± 0.057
333.15 K	1.579 ± 0.034	1.592 ± 0.034	1.653 ± 0.035	1.734 ± 0.037	1.814 ± 0.039	1.896 ± 0.04	2.066 ± 0.044	2.249 ± 0.048
343.15 K	1.354 ± 0.029	1.367 ± 0.03	1.419 ± 0.03	1.487 ± 0.032	1.555 ± 0.033	1.624 ± 0.035	1.765 ± 0.038	1.917 ± 0.041
353.14 K	–	1.187 ± 0.026	–	–	–	–	–	–
353.15 K	1.177 ± 0.025	–	1.233 ± 0.027	1.292 ± 0.028	1.351 ± 0.029	1.411 ± 0.03	1.534 ± 0.033	1.662 ± 0.036
363.15 K	1.032 ± 0.023	1.041 ± 0.023	1.081 ± 0.024	1.133 ± 0.025	1.183 ± 0.026	1.236 ± 0.027	1.343 ± 0.029	1.453 ± 0.031

CCCCOC(=O)CCCCC(=O)OCCCC [dibutyl hexanedioate]
viscosity [mPa·s]
Details	100 kPa	1000 kPa	5000 kPa	10000 kPa	15000 kPa	20000 kPa	30000 kPa	40000 kPa
283.15 K	–	–	–	–	8.961 ± 0.19	–	10.62 ± 0.22	11.95 ± 0.25
283.16 K	7.383 ± 0.16	7.493 ± 0.16	–	–	–	9.508 ± 0.2	–	–
283.17 K	–	–	7.896 ± 0.17	8.407 ± 0.18	–	–	–	–
293.14 K	–	5.566 ± 0.12	–	–	6.585 ± 0.14	–	–	8.724 ± 0.18
293.15 K	5.499 ± 0.12	–	5.84 ± 0.12	6.196 ± 0.13	–	6.982 ± 0.15	7.808 ± 0.16	–
303.15 K	4.237 ± 0.09	–	4.49 ± 0.095	4.759 ± 0.1	5.029 ± 0.11	5.323 ± 0.11	5.933 ± 0.12	6.592 ± 0.14
303.16 K	–	4.288 ± 0.094	–	–	–	–	–	–
313.15 K	3.375 ± 0.072	3.411 ± 0.074	3.566 ± 0.075	3.769 ± 0.08	3.979 ± 0.084	4.197 ± 0.089	4.66 ± 0.098	5.153 ± 0.11
323.15 K	–	2.774 ± 0.06	2.9 ± 0.062	3.061 ± 0.065	3.224 ± 0.068	3.393 ± 0.072	3.754 ± 0.079	4.146 ± 0.088
323.16 K	2.746 ± 0.058	–	–	–	–	–	–	–
333.14 K	–	–	–	2.54 ± 0.054	–	–	–	–
333.15 K	2.282 ± 0.049	2.304 ± 0.05	2.407 ± 0.051	–	–	2.814 ± 0.06	3.106 ± 0.066	3.412 ± 0.072
333.16 K	–	–	–	–	2.675 ± 0.057	–	–	–
343.15 K	1.93 ± 0.041	1.95 ± 0.042	2.035 ± 0.043	2.144 ± 0.046	2.257 ± 0.048	2.37 ± 0.05	2.612 ± 0.055	2.859 ± 0.061
353.15 K	1.655 ± 0.035	1.672 ± 0.036	1.746 ± 0.037	1.839 ± 0.039	1.933 ± 0.041	2.031 ± 0.043	2.23 ± 0.047	2.438 ± 0.052
363.15 K	1.437 ± 0.031	1.452 ± 0.031	–	–	1.675 ± 0.036	1.757 ± 0.038	1.93 ± 0.041	2.108 ± 0.045
363.16 K	–	–	–	1.594 ± 0.034	–	–	–	–
363.17 K	–	–	1.513 ± 0.032	–	–	–	–	–
